Here are results for one compound from PMC6126659, “Structural basis for light control of cell development revealed by crystal structures of a myxobacterial phytochrome” (IUCrJ, 2018).

Type in all cases: binding
For assay [1], the target named is T1, SaBphP1-PCM (PAS-GAF-PHY) (Allostigmatella aurantiaca, UniProt Q097N3, Y262F/T289H).
T1 construct: gene STIAU_3396; photosensory core module PAS-GAF-PHY, residues 1-516, pET28c(+), E. coli BL21(DE3) co-expressing heme oxygenase; dimer; histidine kinase domain absent
The assay is described as follows: UV-vis absorption spectroscopy of bilin-bound protein. Particulars: covalent; dark / 700 / 750 nm illumination, room temperature.

The target of assay [2] is T2, SaBphP1-PCM (PAS-GAF-PHY) (Allostigmatella aurantiaca, UniProt Q097N3, D208T/T289H).
T2 construct: gene STIAU_3396; photosensory core module PAS-GAF-PHY, residues 1-516, pET28c(+), E. coli BL21(DE3) co-expressing heme oxygenase; dimer; histidine kinase domain absent
The description is as above. As to conditions: covalent; 740 / 700 nm illumination, room temperature.

The target in another assay is T3, SaBphP1-CBD (PAS-GAF) (Allostigmatella aurantiaca, UniProt Q097N3).
T3 construct: gene STIAU_3396; crystallographic dimer
Nature of the assay: X-ray crystallography ([…] K, […] A). Particulars: covalent, Cys18; dark-adapted Pr state; pH 8.5.

Assay [3] addresses T4, SaBphP1-PCM (PAS-GAF-PHY) (Allostigmatella aurantiaca, UniProt Q097N3, T289H).
T4 construct: gene STIAU_3396; photosensory core module PAS-GAF-PHY, residues 1-516, pET28c(+), E. coli BL21(DE3) co-expressing heme oxygenase; dimer; histidine kinase domain absent
The assay is described as follows: X-ray crystallography ([…] K, […] A; XFEL […] K, […] A). As to conditions: covalent, Cys18; dark-adapted Pr state; pH 6.2.

The target of assay [4] is T5, SaBphP1-PCM (PAS-GAF-PHY) (Allostigmatella aurantiaca, UniProt Q097N3).
T5 construct: gene STIAU_3396; photosensory core module PAS-GAF-PHY, residues 1-516, pET28c(+), E. coli BL21(DE3) co-expressing heme oxygenase; dimer; histidine kinase domain absent
Nature of the assay: X-ray crystallography ([…] K, […] A). Particulars: covalent, Cys18; dark-adapted Pr state; pH 6.2.

T4 sequence (Q097N3 entry or part of it T289H): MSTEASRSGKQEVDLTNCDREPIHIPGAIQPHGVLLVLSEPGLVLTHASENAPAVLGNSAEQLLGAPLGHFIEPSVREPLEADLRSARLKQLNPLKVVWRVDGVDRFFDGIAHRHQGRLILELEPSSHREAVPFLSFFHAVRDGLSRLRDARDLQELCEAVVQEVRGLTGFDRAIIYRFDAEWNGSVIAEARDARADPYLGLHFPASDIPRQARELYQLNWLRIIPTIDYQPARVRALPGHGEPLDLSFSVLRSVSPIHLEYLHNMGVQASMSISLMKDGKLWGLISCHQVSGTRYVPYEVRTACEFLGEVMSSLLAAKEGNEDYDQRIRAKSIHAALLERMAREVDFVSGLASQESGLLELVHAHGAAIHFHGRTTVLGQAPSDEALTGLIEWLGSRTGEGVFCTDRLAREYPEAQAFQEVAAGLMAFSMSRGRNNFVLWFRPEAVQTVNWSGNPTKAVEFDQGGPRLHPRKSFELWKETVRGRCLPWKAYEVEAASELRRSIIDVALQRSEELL
T5 sequence (Q097N3 entry or part of it): as the sequence (Q097N3 entry or part of it T289H) above, with H289T counted along it
T3 sequence (Q097N3 entry or part of it): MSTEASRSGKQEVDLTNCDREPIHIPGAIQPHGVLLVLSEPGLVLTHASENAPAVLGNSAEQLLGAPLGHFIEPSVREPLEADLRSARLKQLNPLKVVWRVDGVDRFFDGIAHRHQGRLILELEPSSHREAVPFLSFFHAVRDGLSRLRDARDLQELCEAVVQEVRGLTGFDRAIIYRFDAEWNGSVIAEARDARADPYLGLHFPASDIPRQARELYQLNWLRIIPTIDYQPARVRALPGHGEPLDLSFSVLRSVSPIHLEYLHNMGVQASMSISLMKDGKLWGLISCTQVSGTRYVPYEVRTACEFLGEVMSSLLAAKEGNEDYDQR
T2 sequence (Q097N3 entry or part of it D208T/T289H): as the sequence (Q097N3 entry or part of it T289H) above, with D208T counted along it
T1 sequence (Q097N3 entry or part of it Y262F/T289H): as the sequence (Q097N3 entry or part of it T289H) above, with Y262F counted along it

`C=CC1=C(C)C(=Cc2[nH]c(C=C3N=C(C=C4NC(=O)C(C)=C4C=C)C(C)=C3CCC(=O)O)c(CCC(=O)O)c2C)NC1=O` [biliverdin]: the “UV-vis absorption spectroscopy of bilin-bound protein” value is “the dark-adapted spectrum of the Y262F T289H double mutant” in assay [1] and “The mutation of Asp208 to threonine (D208T) abolishes the formation of a stable E-configuration” in assay [2]. For the same compound, the “X-ray crystallography (100 K, 2.25 A)” value at SaBphP1-CBD (PAS-GAF) is “The BV chromophore is bound to Cys18 close to the N-terminus”; in assay [4] it was “electron density that appeared in the chromophore binding pocket was interpreted by a biliverdin linked to Cys18”. Besides, the “X-ray crystallography (100 K, 2.65 A; XFEL 293 K, 3.15 A)” value in assay [3] is recorded as “the BV A ring tilts with the covalent bond to the Cys18 S atom”.
